# Laboratory results from patent US9492471B2, “Methods of treating a disease or disorder associated with Bruton'S Tyrosine Kinase” (Celgene Avilomics Research, Inc., priority 2013, dated 2016).
# Where two headings read alike, the source gives them in different places.
# What was measured:
# Experiment in all cases: HotSpot kinase profiling
# Type in all cases: biochemical
# DMPK = target: T1, DMPK (Homo sapiens, UniProt Q09013)
# T1 construct: purchased Reaction Biology Corp
# T1 sequence (Q09013 1-629): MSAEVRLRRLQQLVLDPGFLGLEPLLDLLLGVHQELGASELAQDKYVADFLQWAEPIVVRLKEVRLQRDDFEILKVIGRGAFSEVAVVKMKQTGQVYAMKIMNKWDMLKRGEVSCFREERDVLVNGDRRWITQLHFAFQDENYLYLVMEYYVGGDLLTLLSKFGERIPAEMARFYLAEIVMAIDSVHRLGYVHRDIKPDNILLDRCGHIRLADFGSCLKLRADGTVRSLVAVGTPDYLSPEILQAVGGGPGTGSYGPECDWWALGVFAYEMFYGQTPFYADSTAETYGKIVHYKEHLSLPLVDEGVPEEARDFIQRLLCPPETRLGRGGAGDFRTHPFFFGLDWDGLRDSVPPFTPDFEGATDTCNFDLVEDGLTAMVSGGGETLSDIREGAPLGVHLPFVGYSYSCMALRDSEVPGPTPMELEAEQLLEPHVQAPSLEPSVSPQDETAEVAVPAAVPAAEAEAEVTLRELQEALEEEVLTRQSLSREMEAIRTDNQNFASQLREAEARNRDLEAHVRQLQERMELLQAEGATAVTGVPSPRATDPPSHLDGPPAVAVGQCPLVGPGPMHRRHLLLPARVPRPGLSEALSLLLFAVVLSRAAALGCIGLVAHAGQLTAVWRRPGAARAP
# Outline: (§1)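 P81 filtration radiometric readout; 2 h incubation at room temperature; 0.1% phosphoric acid wash; DMSO negative control; % inhibition, mean of replicate runs.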
# MYO3b = target: T2, MYO3b (Homo sapiens, UniProt Q8WXR4)
# T2 construct: purchased Reaction Biology Corp
# T2 sequence (Q8WXR4 1-1341): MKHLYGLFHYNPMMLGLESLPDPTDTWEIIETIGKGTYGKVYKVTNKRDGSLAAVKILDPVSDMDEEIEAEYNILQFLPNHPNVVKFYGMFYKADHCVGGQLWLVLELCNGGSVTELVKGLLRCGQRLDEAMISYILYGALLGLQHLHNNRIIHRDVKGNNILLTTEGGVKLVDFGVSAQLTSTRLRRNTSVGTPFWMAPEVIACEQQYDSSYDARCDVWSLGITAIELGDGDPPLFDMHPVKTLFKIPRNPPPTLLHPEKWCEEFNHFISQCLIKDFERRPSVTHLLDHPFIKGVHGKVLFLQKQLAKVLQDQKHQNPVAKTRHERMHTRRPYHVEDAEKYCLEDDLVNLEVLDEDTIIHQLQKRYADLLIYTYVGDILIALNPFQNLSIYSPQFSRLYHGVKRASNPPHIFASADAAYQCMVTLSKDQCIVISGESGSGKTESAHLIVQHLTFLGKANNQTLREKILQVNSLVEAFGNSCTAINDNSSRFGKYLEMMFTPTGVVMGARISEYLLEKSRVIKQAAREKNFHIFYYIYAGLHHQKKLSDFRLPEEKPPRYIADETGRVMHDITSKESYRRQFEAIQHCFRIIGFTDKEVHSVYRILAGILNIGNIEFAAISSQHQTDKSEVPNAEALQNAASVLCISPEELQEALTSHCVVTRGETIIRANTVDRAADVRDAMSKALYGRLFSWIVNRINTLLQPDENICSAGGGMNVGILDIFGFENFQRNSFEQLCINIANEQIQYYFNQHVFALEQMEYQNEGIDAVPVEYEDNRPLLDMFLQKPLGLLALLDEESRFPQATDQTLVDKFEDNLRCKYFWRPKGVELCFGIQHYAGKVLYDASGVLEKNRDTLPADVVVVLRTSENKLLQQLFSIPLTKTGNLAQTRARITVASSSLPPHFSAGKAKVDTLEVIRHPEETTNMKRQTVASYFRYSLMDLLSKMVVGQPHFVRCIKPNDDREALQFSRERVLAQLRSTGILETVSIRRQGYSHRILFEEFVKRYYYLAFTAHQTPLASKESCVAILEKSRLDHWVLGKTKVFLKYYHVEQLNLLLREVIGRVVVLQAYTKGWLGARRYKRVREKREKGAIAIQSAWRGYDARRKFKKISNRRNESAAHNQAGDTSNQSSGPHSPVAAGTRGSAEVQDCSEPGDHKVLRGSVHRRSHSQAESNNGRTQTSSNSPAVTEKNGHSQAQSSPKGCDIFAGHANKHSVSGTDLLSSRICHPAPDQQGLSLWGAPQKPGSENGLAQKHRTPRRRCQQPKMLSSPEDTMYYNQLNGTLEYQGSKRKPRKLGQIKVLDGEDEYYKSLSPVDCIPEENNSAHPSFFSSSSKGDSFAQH
# Outline: as §1
# PDGFRa = target: T3, PDGFRa (Homo sapiens, UniProt P16234)
# T3 construct: purchased Reaction Biology Corp
# Outline: as §1
# [1] = read-out: % Enzyme Activity (relative to DMSO controls) Run 1
# [2] = read-out: % Enzyme Activity (relative to DMSO controls) Run 2
# T3 sequence (P16234 24-1089): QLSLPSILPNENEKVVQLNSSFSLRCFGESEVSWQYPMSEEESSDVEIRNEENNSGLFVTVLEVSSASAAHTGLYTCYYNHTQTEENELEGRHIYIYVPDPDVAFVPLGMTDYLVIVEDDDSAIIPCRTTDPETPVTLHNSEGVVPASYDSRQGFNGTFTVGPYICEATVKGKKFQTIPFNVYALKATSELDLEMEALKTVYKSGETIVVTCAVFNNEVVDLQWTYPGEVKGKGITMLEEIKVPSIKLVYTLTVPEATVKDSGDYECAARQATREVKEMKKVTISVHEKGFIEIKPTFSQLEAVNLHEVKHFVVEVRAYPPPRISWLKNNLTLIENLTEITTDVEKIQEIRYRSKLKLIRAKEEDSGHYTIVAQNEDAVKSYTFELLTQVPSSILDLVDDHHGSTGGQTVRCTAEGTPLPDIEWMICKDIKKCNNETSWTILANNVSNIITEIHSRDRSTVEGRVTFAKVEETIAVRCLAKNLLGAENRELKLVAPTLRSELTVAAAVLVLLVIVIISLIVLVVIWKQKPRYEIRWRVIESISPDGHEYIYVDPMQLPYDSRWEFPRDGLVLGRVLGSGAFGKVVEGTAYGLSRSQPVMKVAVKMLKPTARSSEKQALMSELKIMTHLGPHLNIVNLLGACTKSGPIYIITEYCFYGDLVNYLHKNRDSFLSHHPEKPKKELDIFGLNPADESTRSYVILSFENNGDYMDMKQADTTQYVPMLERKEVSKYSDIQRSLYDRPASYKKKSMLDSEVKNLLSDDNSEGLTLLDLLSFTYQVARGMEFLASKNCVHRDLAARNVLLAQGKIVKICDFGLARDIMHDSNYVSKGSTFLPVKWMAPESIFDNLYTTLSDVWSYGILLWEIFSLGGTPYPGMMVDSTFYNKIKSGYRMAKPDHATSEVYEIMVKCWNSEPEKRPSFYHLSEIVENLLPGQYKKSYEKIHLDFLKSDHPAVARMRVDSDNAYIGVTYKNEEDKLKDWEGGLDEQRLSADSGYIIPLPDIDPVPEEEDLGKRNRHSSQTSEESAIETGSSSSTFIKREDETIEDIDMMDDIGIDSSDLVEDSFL
compound,measurement,setting,value
C=CC(=O)Nc1cccc(Nc2nc(Nc3ccc(OCCOC)c(F)c3)ncc2F)c1 [Compound 2],inhibition at 3 µM,DMPK,-3.25%
same,remaining activity at 3 µM,DMPK; [1],104%
same,remaining activity at 3 µM,DMPK; [2],102%
same,inhibition at 3 µM,MYO3b,-2.59%
same,remaining activity at 3 µM,MYO3b; [1],104%
same,remaining activity at 3 µM,MYO3b; [2],102%
same,inhibition at 3 µM,PDGFRa,36.6%
same,remaining activity at 3 µM,PDGFRa; [1],63.9%
same,remaining activity at 3 µM,PDGFRa; [2],62.8%
